Data reported in US20160129078A1, “Rhomboid Proteins and Uses Thereof” (Queen's University at Kingston, priority 2014, published 2016).

Legend:
yeast [1] = assay: Sensitization of yeast to fungicidal agents AmB and Nys; type: cell-based, Saccharomyces cerevisiae; details: for yeast cell survival, fungicide alone: sub-lethal levels (1% AmB, 0.5% Nys), no rhomboid protein; for sensitization of yeast to antifungals AmB and Nys: exogenous protein co-delivered with sub-lethal AmB and Nys, as Example 13
Protocol: Experiments were conducted to assess the ability of the Arabidopsis At1g74130 proteins or variants to sensitize yeast to the antifungal agents Amphotericin B (AmB) and Nystatin (Nys). Overall, these assays were conducted in a manner similar to that designed for bacteria (Example 9). In addition to the components mixed with the added proteins or variants, the antifungal AmB was also utilized as part of the delivery system. The AmB drug contains small quantities of the detergent deoxycholate, which may also assist in the delivery of proteins into the cell, as well as function as a pore forming agent itself. […] The effective co-delivery sub-lethal concentrations of the two antifungal agents or protein had little or no effect when provided individually. FIGS. 17 and 18 show results of the yeast sensitivity assays for AmB and Nys. […] In FIG. 17, the “Yeast Control” bars represent yeast cells given mock treatments with culture media (YPD) alone, YPD plus 1% AmB, YPD plus 0.5% Nys, and YPD plus 1% AmB and 0.5% Nys, respectively. The “BSA Control” bars represent another set of mock treatments with yeast cells. This set utilized the same set-up as the Yeast Control set but with added control bovine serum albumin proteins (BSA) (dissolved in the elution buffer, the same buffer used for the purification of the recombinant At1g74130 rhomboid proteins or variants). These assays represent another variation of negative controls for rhomboid protein. The “Elution Control” bars represent yeast cells mock treated using the same set-up as in the Yeast Control set but with added elution buffer alone. This variation of control assays was designed to assess for potential toxic impacts when combining elution buffer and the listed drugs, as well any effects originating from components of the elution buffer itself. The composition of the elution buffer is provided above in Example 5. With the exception of Nys, these treatments represent the first step and occur for 45 minutes before the second step when exposure to fungicides takes place. Within each set of bars, where applicable, the second 15-minute step treatment occurred with a sub-lethal dose of Nys. After a total of one hour, the treated yeast cells were plated on non-selective YPD agar plates. Plates were grown 2-3 days at 27-30° C. and assessed for surviving cell numbers (measuring cell death). Images were also taken to document cell and colony growth characteristics.
In the experimental assays, the sensitizing properties of At1g74130 or variants (sensitizing variants) were tested by adding 10 ug protein (At1g74130 or variants in elution buffer) to yeast cells (300-500 cells). To reiterate in all cases, the components were added to cultures and mixed for one hour, where Nys was added and incubated for the last 15 minutes of the treatment. Pre-treatment was designed to permit AmB and At1g74130 proteins to establish and work prior to adding Nys. After the one hour incubation, 500 cells were plated on non-selective YPD agar media and grown for 48 hours at 30′C.
The sub-lethal levels of fungicides to use in these assays were determined using dosage experiments. These assays were conducted on yeast cells without added rhomboid proteins or variants. The dosages of AmB tested ranged from 0 to 5% (v/v). […] Likewise, the Nys level was determined using a range of 0.5 to 2.5%. Yeast cells were treated for one hour with fungicides in a total volume of 400 μl YPD media before plating.
Since both the AmB buffer contained small quantities of detergent (deoxycholate being the main one), an experiment was done in which different amounts (1% and 10%) of deoxycholate were added to yeast cells to ascertain any effects. Adding deoxycholate had little effect on yeast.
This set of yeast assays was conducted in the same manner described above (Example 13) and employed the same controls and combinations. […]

yeast [2] = assay: as above; type: cell-based, Saccharomyces cerevisiae; details: range of 0 to 1% (v/v), no rhomboid protein, one hour
[3] = system: ampicillin resistant E. coli; assay: Sensitization of bacteria to ampicillin by exogenous rhomboid protein; type: cell-based, Escherichia coli
Protocol: Experiments were conducted to assess the ability of At1g74130 proteins or variants to sensitize bacteria to the antibiotic ampicillin, using “super-resistant” E. coli (multi-copy pET20b plasmid-based ampicillin-resistant lab strains). This model is considered the so-called “SuperBug” model, as commonly referred to in the public domain and media.
Control assays were conducted on cells without added At1g74130 or variants (sensitizing variants) to determine the delivery system to use and the appropriate levels of ampicillin to use. Control assays were also conducted to determine if the 5% (v/v) DMSO delivery system exerted any effects. Bacterial cells, usually 800-1000, were mock treated with Luria Broth (LB) media or 5% (v/v) DMSO for 15 minutes prior to exposure to a 30-45 minute exposure to ampicillin (1.25 mg/ml or 1.5 mg/ml). Total volumes of 200 μl were used in these assays. The treated-exposed cells were then plated onto non-selective LB agar plates and allowed to grow overnight to assess the level of cell death or susceptibility to ampicillin. The ampicillin range found useful for these assays was between 1.25 mg/ml to 1.5 mg/ml. This range mirrored the observations reported in an earlier section above with transgenic bacterial cells and ampicillin susceptibility. […]

bacteria = assay: Sensitization of bacteria to tetracycline by exogenous rhomboid protein; type: cell-based, Escherichia coli; details: tetracycline 15 ug/ml
Protocol: Experiments were conducted to assess the ability and the utility of At1g74130 protein variants to sensitize bacteria to another antibiotic, tetracycline. In bacteria, tolerance or resistance to tetracycline is facilitated by a mechanism different from the ampicillin resistance assayed in Example 9. Unlike the breakdown of ampicillin outside the bacterial cells by secreted ampicilliase, tetracycline resistance in bacteria is based largely on the continual and effective pumping of tetracycline out of the cell by proteinaceous membrane pumps. To assess the utility of the At1g74130 for sensitizing bacteria to tetracycline, these bacterial assays were conducted in the same manner described in Example 9. The same controls and combinations were used. The final treatment level of tetracycline used in place of the ampicillin treatment was 15 ug/ml.
Experiments were conducted to assess the ability and the utility of a human rhomboid type or variant to sensitize bacteria to tetracycline. These bacterial assays were conducted in the same manner described above for the other rhomboid variants and in Example 9. The same controls and combinations were used. The At1g74130 L was the control for UBAC2 in this set of assays. The previously observed behaviours and responses were not observed for UBAC2 in this setting with the antibiotic tetracycline (FIG. 16).

Question: For C[C@@H]1[C@H](O)[C@@H](C)/C=C/C=C/C=C/C=C/C=C/C=C/C=C/[C@H](O[C@@H]2O[C@H](C)[C@@H](O)[C@H](N)[C@@H]2O)C[C@@H]2O[C@](O)(C[C@@H](O)C[C@@H](O)[C@H](O)CC[C@@H](O)C[C@@H](O)CC(=O)O[C@H]1C)C[C@H](O)[C@H]2C(=O)O [AmB, Amphotericin B, reference compound], which “yeast cell survival, fungicide alone” value (yeast [1]) is on record?
Answer: Its value is “small reduction in yeast cell survival”.

Question: And the “surviving yeast colonies in dosage experiment” value (yeast [2])?
Answer: The value was “no significant differences”.

Question: C[C@@H]1[C@H](O)[C@@H](C)/C=C/C=C/CC/C=C/C=C/C=C/C=C/C(O[C@H]2O[C@H](C)[C@@H](O)[C@H](N)[C@@H]2O)CC2O[C@](O)(CC(O)C(O)CCC(O)CC(O)CC(O)CC(=O)O[C@H]1C)CC(O)C2C(=O)O (stereo partly drawn) [Nys, Nystatin, reference compound] was tested. Which “yeast cell survival, fungicide alone” value (yeast [1]) did it give?
Answer: Its value is “small reduction in yeast cell survival”.

Question: deoxycholate was tested. Which effect on yeast (yeast [1]; 1% and 10% added to yeast cells) did it give?
Answer: The effect on yeast was “little effect”.

Question: Which “effect on bacteria when provided individually” value ([3]; effective co-delivery concentration, without protein) does the source give for CC1(C)S[C@@H]2[C@H](NC(=O)[C@H](N)c3ccccc3)C(=O)N2[C@H]1C(=O)O [ampicillin, reference compound] here?
Answer: Its value is “no effects”.

B1: UBAC2: human UBAC2 isoform 1, fusion between a rhomboid pseudoprotease sequence and ubiquitin-associating domains (protein, listed as Homo sapiens)
chain: MQYFFGITAASNLPSGFLAPVFALFVPFYCSIPRVQVAQILGPLSITNKTLIYILGLQLFTSGSYIWIVAISGLMSGLCYDSKMFQVHQVLCIPSWMAKFFSWTLEPIFSSSEPTSEARIGMGATLDIQRQQRMELLDRQLMFSQFAQGRRQRQQQGGMINWNRLFPPLRQRQNVNYQGGRQSEPAAPPLEVSEEQVARLMEMGFSRGDALEALRASNNDLNVATNFLLQH
Question: What does the source list for B1?
Answer: sensitization of bacteria to tetracycline (bacteria): not observed; sensitization of yeast to antifungals AmB and Nys (yeast [1]): increased the sensitivity

B2: At1g25290 L: L-form Arabidopsis At1g25290 rhomboid protease, contains the RVL cyclin-binding domain (protein, listed as Arabidopsis thaliana)
chain: MVSVSLSHHNLWPPESGSTAFRGFATAASVHACHHVSRHLRLDFHLRSSLKKLQHFSDDARMKFARYQRVFVFNGANFLKSRVDIRLSQSSPFVCFFNGGESRLNPRGGEEGSSNPETSKRNTVNGRRWTNVLLAINVIMYIAQIASDGKVLTWGAKINSLIERGQLWRLATASVLHANPMHLMINCYSLNSIGPTAESLGGPKRFLAVYLTSAVARVLGSAMSYWFNKAPSVGASGAIFGLVGSVAVFVIRHKQMVRGGNEDLMQIAQIIALNMAMGLMSRR
Question: What does the source list for B2?
Answer: sensitization of yeast to antifungals AmB and Nys (yeast [1]): no activity; sensitization of bacteria to ampicillin ([3]; exogenous protein, same manner as Example 9): no activity
